Among the test systems are Malme-3M; UACC-62; HOP-92; IGROV-1; UACC-257; SF-268; OVCAR-4; OVCAR-3; NCI-H522; LOX IMVI; MCF7; KM12; SK-MEL-28; MOLT-4; SW-620; SK-OV-3; RPMI-8226; NCI/ADR-RES; RXF 393; HOP-62.
Assay in all cases: growth of human tumour cells (NCI), 48 h

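Cultured in 96-well plates, cells were exposed to test compound for 48 hours across five concentrations. GI50: concentration for 50% inhibition of growth.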 Active and inactive are the calls of the source. No stated cut-off is given here; in the data, active = GI50 up to about 1.1 µM and inactive = higher. A value given as a limit tells only on which side of the number the result lay.

Take `O=C1NCN(c2ccccc2)C12CCN(CCCSc1ccc(F)cc1)CC2`: the GI50 with Malme-3M was 21.2 µM (inactive); in the assay on UACC-62, 27.4 µM (inactive); in the assay on HOP-92 it was 9.71 µM (inactive); in the assay on IGROV-1 it was 9.1 µM (inactive); in the assay with UACC-257, 2.92 µM (inactive); in the assay on SF-268, 28.8 µM (inactive). Moreover, the GI50 is 13.8 µM (inactive) in the assay on OVCAR-4; 55.6 µM (inactive) in the assay with OVCAR-3; > 83.9 µM (inactive) in the assay with NCI-H522; 10.5 µM (inactive) in the assay on LOX IMVI; 5.3 µM (inactive) in the assay on MCF7; 30.2 µM (inactive) with KM12. The GI50 in the assay with SK-MEL-28 was 55.2 µM (inactive); in the assay with MOLT-4 it was 12.2 µM (inactive); with SW-620, > 49.1 µM (inactive); in the assay on SK-OV-3 it was > 100 µM (inactive); with RPMI-8226, 18.6 µM (inactive); with NCI/ADR-RES it was > 48 µM (inactive). Moreover, the GI50 with RXF 393 was > 42 µM (inactive); with HOP-62, 25.5 µM (inactive).

Consider `C=CS(=O)(=O)c1c2cc(OC)ccc2nc2ccc(OC)cc12`, for which the GI50 with Malme-3M was 2.04 µM (inactive); in the assay on UACC-62, 12.2 µM (inactive); with HOP-92 it was 5.33 µM (inactive); in the assay with IGROV-1, 2.92 µM (inactive); in the assay with UACC-257 it was 7.53 µM (inactive); with SF-268 it was 8.57 µM (inactive). The GI50 with OVCAR-4 is 13.1 µM (inactive); with OVCAR-3, 2.82 µM (inactive); in the assay on NCI-H522, 1.73 µM (inactive); with LOX IMVI it was 2.21 µM (inactive); in the assay on MCF7, 2.94 µM (inactive); in the assay on KM12 it was 9.89 µM (inactive). For the same compound, the GI50 in the assay with SK-MEL-28 was 7.98 µM (inactive); in the assay on MOLT-4, 2.32 µM (inactive); in the assay on SW-620, 3.12 µM (inactive); in the assay on SK-OV-3, 17.7 µM (inactive); in the assay on RPMI-8226, 2.37 µM (inactive); in the assay with NCI/ADR-RES it was 10.4 µM (inactive). Moreover, the GI50 in the assay on RXF 393 is 3.99 µM (inactive); in the assay with HOP-62 it was 14.8 µM (inactive).

On to `O=C1NCN(c2ccccc2)C12CCN(CCCN1CCN(CCOC(c3ccc(F)cc3)c3ccc(F)cc3)CC1)CC2`, for which the GI50 with Malme-3M was 1.37 µM (inactive); with UACC-62, 2.05 µM (inactive); in the assay on HOP-92, 1.64 µM (inactive); in the assay with IGROV-1, 1.98 µM (inactive); with UACC-257, 1.85 µM (inactive); in the assay with SF-268, 1.87 µM (inactive). Also, the GI50 in the assay on OVCAR-4 was 2.92 µM (inactive); with OVCAR-3 it was 2.03 µM (inactive); in the assay with NCI-H522, 1.9 µM (inactive); in the assay on LOX IMVI, 1.86 µM (inactive); in the assay with MCF7, 1.92 µM (inactive); with KM12, 2.43 µM (inactive). Besides, the GI50 with SK-MEL-28 is 2.47 µM (inactive); with MOLT-4, 3.15 µM (inactive); with SW-620, 2.61 µM (inactive); in the assay on SK-OV-3, 2.22 µM (inactive); in the assay on RPMI-8226 it was 2.04 µM (inactive); with NCI/ADR-RES, 11 µM (inactive). Moreover, the GI50 was 1.04 µM (active) with RXF 393 and 1.95 µM (inactive) in the assay on HOP-62.

Turning to `CC1(C)COC(/C=C/C2=NC(C)(C)CO2)=N1`, the GI50 was 17.5 µM (inactive) in the assay with Malme-3M; 15.1 µM (inactive) in the assay on UACC-62; 25 µM (inactive) in the assay with HOP-92; 18.5 µM (inactive) in the assay with IGROV-1; 29.6 µM (inactive) in the assay with UACC-257; 24.3 µM (inactive) in the assay on SF-268. The GI50 with OVCAR-4 was 24.7 µM (inactive); in the assay with OVCAR-3, 12.4 µM (inactive); in the assay on NCI-H522 it was 2.77 µM (inactive); in the assay with LOX IMVI, 3.25 µM (inactive); in the assay on MCF7, 15.9 µM (inactive); in the assay with KM12 it was 13.9 µM (inactive). For the same compound, the GI50 is 17.6 µM (inactive) with SK-MEL-28; 12.6 µM (inactive) with MOLT-4; 12.7 µM (inactive) in the assay with SW-620; > 100 µM (inactive) in the assay with SK-OV-3; 10 µM (inactive) in the assay on RPMI-8226; 26.1 µM (inactive) in the assay with NCI/ADR-RES. Besides, the GI50 was 16.3 µM (inactive) in the assay on RXF 393 and 18.9 µM (inactive) in the assay with HOP-62.

Consider `COC(=O)c1c(O)ccc2c1c1c(n2Cc2cccc(C)c2)C(=O)c2ccccc2C1=O`, for which the GI50 in the assay with Malme-3M was 16.7 µM (inactive); in the assay on HOP-92 it was 6.61 µM (inactive); with IGROV-1, 11.4 µM (inactive); with UACC-257, 16.6 µM (inactive); in the assay with SF-268, 12 µM (inactive); in the assay with OVCAR-4, 6.46 µM (inactive). Besides, the GI50 with OVCAR-3 was 8.2 µM (inactive); in the assay on NCI-H522, 11.5 µM (inactive); in the assay on LOX IMVI it was 11.7 µM (inactive); in the assay with MCF7 it was 5.37 µM (inactive); with KM12 it was 11 µM (inactive); with SK-MEL-28 it was 15.3 µM (inactive). In addition, the GI50 is 4.24 µM (inactive) with MOLT-4; 14.2 µM (inactive) in the assay on SW-620; 11.4 µM (inactive) in the assay with SK-OV-3; 3.72 µM (inactive) in the assay on RPMI-8226; 9.42 µM (inactive) in the assay with NCI/ADR-RES; 10.7 µM (inactive) in the assay with RXF 393. Moreover, the GI50 in the assay with HOP-62 was 16.1 µM (inactive).

Turning to `O=C(O)CNS(=O)(=O)c1ccc(NC(=O)Nc2ccccc2)cc1`, the GI50 in the assay on Malme-3M was > 100 µM (inactive); in the assay with UACC-62, > 38.3 µM (inactive); with HOP-92, > 100 µM (inactive); in the assay with IGROV-1, > 37.6 µM (inactive); in the assay with UACC-257 it was > 100 µM (inactive); in the assay with SF-268, > 100 µM (inactive). Further, the GI50 with OVCAR-4, in the assay with OVCAR-3, in the assay on NCI-H522, with LOX IMVI, in the assay with MCF7 and in the assay on KM12 was > 100 µM (inactive) in each case. The GI50 in the assay on SK-MEL-28, with MOLT-4, in the assay with SW-620, in the assay with SK-OV-3, with RPMI-8226 and in the assay with NCI/ADR-RES was > 100 µM (inactive) in each case. Further, the GI50 in the assay with RXF 393 and in the assay on HOP-62 was > 100 µM (inactive) each time.

`CC(C)C1NC(=O)CC(c2ccccc2)N(N=O)C1c1ccccc1` (centres undefined): the GI50 in the assay with Malme-3M is > 100 µM (inactive); in the assay with UACC-62, > 100 µM (inactive); in the assay with HOP-92, > 51.3 µM (inactive); in the assay on IGROV-1, > 100 µM (inactive); with UACC-257, > 100 µM (inactive); with SF-268 it was > 100 µM (inactive). The GI50 in the assay with OVCAR-4 was > 100 µM (inactive); in the assay on OVCAR-3, > 68.9 µM (inactive); with NCI-H522 it was 37.5 µM (inactive); in the assay with LOX IMVI, > 100 µM (inactive); in the assay with MCF7, > 100 µM (inactive); in the assay with KM12, > 100 µM (inactive). Further, the GI50 was > 100 µM (inactive) with SK-MEL-28; > 100 µM (inactive) with MOLT-4; > 100 µM (inactive) in the assay on SW-620; > 61.1 µM (inactive) in the assay with SK-OV-3; 81.8 µM (inactive) in the assay with RPMI-8226; > 100 µM (inactive) with NCI/ADR-RES. In addition, the GI50 in the assay on RXF 393 and with HOP-62 was > 100 µM (inactive) in each case.

Turning to `C=CCOC1=C(OCC=C)C(C2COC(C)(C)O2)OC1=O` (centres undefined), the GI50 in the assay with Malme-3M was > 100 µM (inactive); in the assay with UACC-62, > 100 µM (inactive); in the assay with HOP-92, 14.8 µM (inactive); in the assay with IGROV-1 it was > 100 µM (inactive); in the assay on UACC-257, > 100 µM (inactive); in the assay on SF-268 it was > 100 µM (inactive). Also, the GI50 in the assay with OVCAR-4 is > 100 µM (inactive); in the assay with OVCAR-3, > 100 µM (inactive); in the assay on NCI-H522, 22.1 µM (inactive); in the assay on LOX IMVI, 33.2 µM (inactive); in the assay with MCF7 it was > 100 µM (inactive); with KM12, > 100 µM (inactive). For the same compound, the GI50 was > 100 µM (inactive) in the assay on SK-MEL-28; > 100 µM (inactive) in the assay with MOLT-4; > 100 µM (inactive) in the assay with SW-620; > 100 µM (inactive) in the assay with SK-OV-3; 45.9 µM (inactive) in the assay with RPMI-8226; > 100 µM (inactive) in the assay on NCI/ADR-RES. Further, the GI50 in the assay with RXF 393 and with HOP-62 was > 100 µM (inactive) each time.

Consider `Cc1c2cc[n+](Cc3ccc(I)cc3)cc2c(C)c2c1[nH]c1ccccc12`, for which the GI50 is 0.582 µM (active) in the assay on Malme-3M; 1.12 µM (active) in the assay on UACC-62; 0.56 µM (active) in the assay on HOP-92; 1.1 µM (active) in the assay with IGROV-1; 0.646 µM (active) in the assay with UACC-257; 0.495 µM (active) in the assay on SF-268. The GI50 with OVCAR-4 was 0.546 µM (active); with OVCAR-3, 0.791 µM (active); in the assay on NCI-H522, 0.692 µM (active); with LOX IMVI, 2.16 µM (inactive); in the assay on MCF7, 0.783 µM (active); in the assay with KM12, 0.402 µM (active). In addition, the GI50 is 1.45 µM (inactive) with SK-MEL-28; 0.574 µM (active) in the assay with MOLT-4; 0.912 µM (active) in the assay with SW-620; 3.84 µM (inactive) in the assay with SK-OV-3; 0.518 µM (active) in the assay with RPMI-8226; > 25 µM (inactive) in the assay with NCI/ADR-RES. Also, the GI50 with RXF 393 was 0.893 µM (active); in the assay on HOP-62 it was 0.778 µM (active).

In the case of `O=C1C(Cl)=C(c2ccc([N+](=O)[O-])cc2)C(=O)c2c(O)cccc21`, the GI50 in the assay with Malme-3M is 2.09 µM (inactive); in the assay on UACC-62 it was 0.508 µM (active); in the assay on HOP-92 it was 1.44 µM (inactive); with IGROV-1, 2.39 µM (inactive); in the assay on UACC-257, 1.9 µM (inactive); with SF-268, 0.843 µM (active). The GI50 in the assay with OVCAR-4 was 1.93 µM (inactive); in the assay with OVCAR-3, 1.3 µM (inactive); with NCI-H522, 0.292 µM (active); in the assay with LOX IMVI, 1.39 µM (inactive); with MCF7 it was 4.88 µM (inactive); in the assay on KM12, 1.11 µM (active). Besides, the GI50 with SK-MEL-28 is 1.26 µM (inactive); in the assay with MOLT-4, 2.56 µM (inactive); with SW-620, 1.96 µM (inactive); in the assay on SK-OV-3, 2.87 µM (inactive); in the assay on RPMI-8226 it was 0.379 µM (active); in the assay on NCI/ADR-RES, 2.39 µM (inactive). In addition, the GI50 in the assay with RXF 393 was 0.678 µM (active); in the assay on HOP-62 it was 4.17 µM (inactive).

The values above are taken from ChEMBL document CHEMBL1201862, “PubChem BioAssay data set” (2004).
